# Assay results taken from ChEMBL document CHEMBL2202954, “The effect of PLC-γ2 inhibitors on the growth of human tumour cells” (2012).
# Assays:
# Type in all cases: functional
# [1] = tested on: HCT-116; assay: Cytotoxicity against human HCT116 cells assessed as cellular growth at 10 uM by SRB assay
# [2] = tested on: MDA-MB-231; assay: Cytotoxicity against human MDA-MB-231 cells assessed as cellular growth at 10 uM by SRB assay
# [3] = tested on: PC-3; assay: Cytotoxicity against human PC3 cells assessed as cellular growth at 10 uM by SRB assay
# [4] = tested on: SK-MEL-5; assay: Cytotoxicity against human SK-MEL-5 cells assessed as cellular growth at 10 uM by SRB assay
# [5] = tested on: SK-MEL-28; assay: Cytotoxicity against human SK-MEL-28 cells assessed as cellular growth at 10 uM by SRB assay
# [6] = tested on: MOLT-4; assay: Cytotoxicity against human MOLT4 cells assessed as cellular growth at 10 uM by SRB assay
# [7] = tested on: SNB-19; assay: Cytotoxicity against human SNB19 cells assessed as cellular growth at 10 uM by SRB assay
# [8] = tested on: NCI-H226; assay: Cytotoxicity against human NCI-H226 cells assessed as cellular growth at 10 uM by SRB assay
# [9] = tested on: HL-60(TB); assay: Cytotoxicity against human HL-60(TB) cells assessed as cellular growth at 10 uM by SRB assay
# [10] = tested on: HOP-62; assay: Cytotoxicity against human HOP62 cells assessed as cellular growth at 10 uM by SRB assay
# [11] = tested on: UACC-257; assay: Cytotoxicity against human UACC257 cells assessed as cellular growth at 10 uM by SRB assay
# [12] = tested on: BT-549; assay: Cytotoxicity against human BT549 cells assessed as cellular growth at 10 uM by SRB assay
# [13] = tested on: OVCAR-3; assay: Cytotoxicity against human OVCAR3 cells assessed as cellular growth at 10 uM by SRB assay
# [14] = tested on: UACC-62; assay: Cytotoxicity against human UACC62 cells assessed as cellular growth at 10 uM by SRB assay
# [15] = tested on: MCF7; assay: Cytotoxicity against human MCF7 cells assessed as cellular growth at 10 uM by SRB assay
# [16] = tested on: SF-295; assay: Cytotoxicity against human SF295 cells assessed as cellular growth at 10 uM by SRB assay
# [17] = tested on: COLO 205; assay: Cytotoxicity against human COLO205 cells assessed as cellular growth at 10 uM by SRB assay
# [18] = tested on: MDA-MB-468; assay: Cytotoxicity against human MDA-MB-468 cells assessed as cellular growth at 10 uM by SRB assay
# [19] = tested on: HCC 2998; assay: Cytotoxicity against human HCC2998 cells assessed as cellular growth at 10 uM by SRB assay
# [20] = tested on: RXF 393; assay: Cytotoxicity against human RXF393 cells assessed as cellular growth at 10 uM by SRB assay
# [21] = tested on: Malme-3M; assay: Cytotoxicity against human MALME-3M cells assessed as cellular growth at 10 uM by SRB assay
# [22] = tested on: CCRF-CEM; assay: Cytotoxicity against human CCRF-CEM cells assessed as cellular growth at 10 uM by SRB assay
# [23] = tested on: M14; assay: Cytotoxicity against human M14 cells assessed as cellular growth at 10 uM by SRB assay
# [24] = tested on: 786-0; assay: Cytotoxicity against human 786-0 cells assessed as cellular growth at 10 uM by SRB assay
# [25] = tested on: ACHN; assay: Cytotoxicity against human ACHN cells assessed as cellular growth at 10 uM by SRB assay
# [26] = tested on: OVCAR-8; assay: Cytotoxicity against human OVCAR8 cells assessed as cellular growth at 10 uM by SRB assay
# [27] = tested on: A498; assay: Cytotoxicity against human A498 cells assessed as cellular growth at 10 uM by SRB assay
# [28] = tested on: UO-31; assay: Cytotoxicity against human UO31 cells assessed as cellular growth at 10 uM by SRB assay
# [29] = tested on: NCI-H522; assay: Cytotoxicity against human NCI-H522 cells assessed as cellular growth at 10 uM by SRB assay
# [30] = tested on: SF-539; assay: Cytotoxicity against human SF539 cells assessed as cellular growth at 10 uM by SRB assay
# [31] = tested on: SNB-75; assay: Cytotoxicity against human SNB75 cells assessed as cellular growth at 10 uM by SRB assay
# [32] = tested on: NCI-H23; assay: Cytotoxicity against human NCI-H23 cells assessed as cellular growth at 10 uM by SRB assay
# [33] = tested on: KM12; assay: Cytotoxicity against human KM12 cells assessed as cellular growth at 10 uM by SRB assay
# [34] = tested on: MDA-MB-435; assay: Cytotoxicity against human MDA-MB-435 cells assessed as cellular growth at 10 uM by SRB assay
# [35] = tested on: DU-145; assay: Cytotoxicity against human DU145 cells assessed as cellular growth at 10 uM by SRB assay
# [36] = tested on: IGROV-1; assay: Cytotoxicity against human IGROV1 cells assessed as cellular growth at 10 uM by SRB assay
# [37] = tested on: SF-268; assay: Cytotoxicity against human SF268 cells assessed as cellular growth at 10 uM by SRB assay
# [38] = tested on: SN12C; assay: Cytotoxicity against human SN12C cells assessed as cellular growth at 10 uM by SRB assay
# [39] = tested on: TK-10; assay: Cytotoxicity against human TK10 cells assessed as cellular growth at 10 uM by SRB assay
# [40] = tested on: HT-29; assay: Cytotoxicity against human HT-29 cells assessed as cellular growth at 10 uM by SRB assay
# [41] = tested on: A549; assay: Cytotoxicity against human A549 cells assessed as cellular growth at 10 uM by SRB assay
# [42] = tested on: OVCAR-4; assay: Cytotoxicity against human OVCAR4 cells assessed as cellular growth at 10 uM by SRB assay
# [43] = tested on: U-251; assay: Cytotoxicity against human U251 cells assessed as cellular growth at 10 uM by SRB assay
# [44] = tested on: SW-620; assay: Cytotoxicity against human SW620 cells assessed as cellular growth at 10 uM by SRB assay
# [45] = tested on: SK-OV-3; assay: Cytotoxicity against human SKOV3 cells assessed as cellular growth at 10 uM by SRB assay
# [46] = Cytotoxicity against human NCI-ADR-RES cells assessed as cellular growth at 10 uM by SRB assay
# [47] = tested on: SR; assay: Cytotoxicity against human SR cells assessed as cellular growth at 10 uM by SRB assay
# [48] = tested on: HCT-15; assay: Cytotoxicity against human HCT15 cells assessed as cellular growth at 10 uM by SRB assay
# [49] = tested on: EKVX; assay: Cytotoxicity against human EKVX cells assessed as cellular growth at 10 uM by SRB assay
# [50] = tested on: K562; assay: Cytotoxicity against human K562 cells assessed as cellular growth at 10 uM by SRB assay
# [51] = tested on: NCI-H460; assay: Cytotoxicity against human NCI-H460 cells assessed as cellular growth at 10 uM by SRB assay
# [52] = tested on: LOX IMVI; assay: Cytotoxicity against human LOXIMVI cells assessed as cellular growth at 10 uM by SRB assay
# [53] = tested on: SK-MEL-2; assay: Cytotoxicity against human SK-MEL-2 cells assessed as cellular growth at 10 uM by SRB assay
# [54] = tested on: OVCAR-5; assay: Cytotoxicity against human OVCAR5 cells assessed as cellular growth at 10 uM by SRB assay
# [55] = tested on: Hs-578T; assay: Cytotoxicity against human Hs578T cells assessed as cellular growth at 10 uM by SRB assay
# [56] = tested on: CAKI-1; assay: Cytotoxicity against human Caki1 cells assessed as cellular growth at 10 uM by SRB assay
# [57] = tested on: NCI-H322M; assay: Cytotoxicity against human NCI-H322M cells assessed as cellular growth at 10 uM by SRB assay
# [58] = tested on: T47D; assay: Cytotoxicity against human T47D cells assessed as cellular growth at 10 uM by SRB assay
# [59] = tested on: RPMI-8226; assay: Cytotoxicity against human RPMI8226 cells assessed as cellular growth at 10 uM by SRB assay
# [60] = tested on: HOP-92; assay: Cytotoxicity against human HOP92 cells assessed as cellular growth at 10 uM by SRB assay
smiles,measurement,setting,value
O=C(Nc1ccc2oc(=O)ccc2c1)c1ccc(-c2ccc(Cl)c(Cl)c2)o1,Activity,[1],57.64%
same,Activity,[2],86.89%
same,Activity,[3],73.29%
same,Activity,[4],87.91%
same,Activity,[5],101.23%
same,Activity,[6],73.02%
same,Activity,[7],101.4%
same,Activity,[8],92.4%
same,Activity,[9],85.04%
same,Activity,[10],109.12%
same,Activity,[11],97.36%
same,Activity,[12],77.96%
same,Activity,[13],102.55%
same,Activity,[14],75.33%
same,Activity,[15],86.24%
same,Activity,[16],102.01%
same,Activity,[17],121.29%
same,Activity,[18],97.57%
same,Activity,[19],100.84%
same,Activity,[20],98.99%
same,Activity,[21],100.19%
same,Activity,[22],57.99%
same,Activity,[23],100.99%
same,Activity,[24],88.1%
same,Activity,[25],78.44%
same,Activity,[26],94.2%
same,Activity,[27],101.16%
same,Activity,[28],65.88%
same,Activity,[29],70.34%
same,Activity,[30],90.55%
same,Activity,[31],92.21%
same,Activity,[32],97.86%
same,Activity,[33],73.78%
same,Activity,[34],88.86%
same,Activity,[35],92.43%
same,Activity,[36],106.69%
same,Activity,[37],85.02%
same,Activity,[38],86.83%
same,Activity,[39],90.37%
same,Activity,[40],92.94%
same,Activity,[41],50.07%
same,Activity,[42],91.52%
same,Activity,[43],92.91%
same,Activity,[44],100.55%
same,Activity,[45],107.01%
same,Activity,[46],78.15%
same,Activity,[47],89.98%
same,Activity,[48],72.06%
same,Activity,[49],94.26%
same,Activity,[50],65.27%
same,Activity,[51],100.41%
same,Activity,[52],47.73%
same,Activity,[53],102.15%
same,Activity,[54],99.5%
same,Activity,[55],145.42%
same,Activity,[56],87.9%
same,Activity,[57],91.94%
same,Activity,[58],81.58%
same,Activity,[59],70.14%
Cc1ccc(NC(=O)c2sc3nc(-c4cccs4)ccc3c2N)cc1C,Activity,[1],106.03%
same,Activity,[2],116.18%
same,Activity,[3],101.43%
same,Activity,[4],98.52%
same,Activity,[5],113.95%
same,Activity,[6],80.3%
same,Activity,[7],111.2%
same,Activity,[8],107.93%
same,Activity,[9],82.68%
same,Activity,[10],103.01%
same,Activity,[11],106.65%
same,Activity,[12],133.54%
same,Activity,[13],98.63%
same,Activity,[14],89.05%
same,Activity,[15],109.1%
same,Activity,[16],110.27%
same,Activity,[17],112.33%
same,Activity,[18],44.79%
same,Activity,[19],105.35%
same,Activity,[20],123.31%
same,Activity,[21],118.51%
same,Activity,[22],97.34%
same,Activity,[60],106.34%
same,Activity,[23],114.64%
same,Activity,[24],105.46%
same,Activity,[25],125.53%
same,Activity,[26],102.12%
same,Activity,[27],88.5%
same,Activity,[28],126.96%
same,Activity,[29],100.77%
same,Activity,[30],118.53%
same,Activity,[31],111.99%
same,Activity,[32],111.92%
same,Activity,[33],106.51%
same,Activity,[34],101.83%
same,Activity,[35],103.5%
same,Activity,[36],117.67%
same,Activity,[37],107.88%
same,Activity,[38],100.59%
same,Activity,[39],87%
same,Activity,[40],94.6%
same,Activity,[41],96.75%
same,Activity,[43],101.86%
same,Activity,[44],101.23%
same,Activity,[45],112.05%
same,Activity,[46],102.93%
same,Activity,[47],82.09%
same,Activity,[48],109.09%
same,Activity,[49],103.49%
same,Activity,[50],90.31%
same,Activity,[51],98.65%
same,Activity,[52],101.98%
same,Activity,[53],82.1%
same,Activity,[54],115.16%
same,Activity,[55],110.72%
same,Activity,[56],131.91%
same,Activity,[57],123.82%
same,Activity,[58],96.25%
same,Activity,[59],103.98%
